Measurements taken from patent publication US5112805A, “Pharmaceutical preparation for promoting epithelial healing and prevention of epithelial destruction” (Labsystems, Oy, priority 1989, dated 1992).
“Also recorded” adds a separate entry of the source.

How the values were obtained:
corneal lesions = test: Topical treatment of patients with corneal lesions, clinical response; format: in vivo, human; conditions: for clinical effect: used at first in patients 1, 3 and 4; for therapeutic effect: patient with bilateral acid corrosion
Description: Patients and control individuals. All patients reported here were treated in the Eye Clinic of the Helsinki Central University Hospital.
(§1) Proteinase inhibitor and fibronectin treatment. The patients received topical aprotinin (20 or 40 IU/ml), diluted from the stock preparation in sterile saline or commercially obtained wetting agent (Liquifilm Tears; Allergan), 1-2 drops (50 ul each) at 3 hour intervals. When applied, fibronectin (200 ug/ml) was administered 2-3 minutes after aprotinin treatment, also using 1-2 drops at a time.
After the success with this index case and similar experience with the first few additional patients the following therapeutic regimen was adopted. Patients with corneal ulcers were first treated for four days with conventional therapy including antimicrobial drugs according to laboratory findings or clinical picture. If no response was seen and if proteolytic activity was detected in the tear fluid, aprotinin therapy was initiated. In some cases with low activity in the initial or later tear fluid specimens, aprotinin was combined with topical fibronectin. In addition, in certain patients, such as in a patient with bilateral acid corrosion, no proteolytic activity was detected immediately after injury. […] In zymographic analysis the proteinase in the patient's tear fluid specimen comigrated with plasmin (data not shown). […] This patient will be described in detail elsewhere. However, a large proportion of patients with therapy-resistant corneal lesions of various categories (Table 2) had proteolytic activity and the above regimen was followed.

[1] = test system: proteolytic plasmin-like activity in tear fluid; test: Radial caseinolysis assay of tear fluid proteolytic activity with inhibitors added; format: biochemical, human
Description: (§2) Assay of proteolytic activity in tear fluids. Tear fluid was collected into a glass capillary. Proteolytic activity, using an 8 ul specimen of tear fluid, was measured by the radial caseinolysis procedure^23, using agarose gel and bovine milk casein as substrate. Human plasmin (20 casein units per mg; Kabi Diagnostica, Stockholm, Sweden) was used as standard. The results are expressed as micrograms of plasmin-like activity per milliliter tear fluid. Plasminogen activator levels were determined according to Saksela^23 using plasminogen-containing casein-agarose gels and urokinase (50 000 Plough units/ml; Calbiochem) as standard.
Proteinase inhibitors-Aprotinin (20 000 IU/ml Trasylol®, Bayer), L-cysteine (0.15M; E. Merck), heparin (2500 IU/ml Medica).

[2] = Side effects of aprotinin eye drops in patients; format: in vivo, human
Description: as §1

[3] = test system: tear fluid plasmin-like activity; test: Tear fluid plasmin-like activity of patients during therapy; format: in vivo, human
Description: as §2, §1

epithelium = conditions: published report on clinical use of fibronectin; cited from earlier work
[4] = Patient 1 tear fluid (11.6 without inhibitor), aprotinin 20 IU/ml, L-cysteine 0.075 M, heparin 1250 IU/ml
[5] = Patient 2 tear fluid (7.0 without inhibitor), aprotinin 20 IU/ml, L-cysteine 0.075 M, heparin 1250 IU/ml
[6] = Patient 8 tear fluid (6.0 without inhibitor), aprotinin 10 IU/ml, L-cysteine 0.075 M, heparin 1250 IU/ml
[7] = Patient 9 tear fluid (6.3 without inhibitor), aprotinin 10 IU/ml, L-cysteine 0.075 M, heparin 1250 IU/ml
[8] = tear fluid of patients 1, 2, 8 and 9 in vitro
[9] = tear fluids of patients with corneal lesions, in the assay

For `N[C@@H](CS)C(=O)O` [L-cysteine], the “course of cornea during therapy” value (corneal lesions; patient 4, topical L-cysteine therapy, no detectable microbial pathogens) was “perforated spontaneously”, the clinical effect (corneal lesions) was “little or no clinical effect” and the Proteolytic plasmin-like activity [1, 4] was 10.1 µg/mL. The Proteolytic plasmin-like activity [1, 5] was 7.2 µg/mL, the Proteolytic plasmin-like activity [1, 6] was 4.9 µg/mL and the Proteolytic plasmin-like activity [1, 7] was 5.5 µg/mL. The “effect on the proteolytic activity of tear fluid” value (“effect … of tear fluid” below) [1, 8] was “very little effect” and the “effect … of tear fluid” value [1, 9] was “minimal inhibitory effect”.

For aprotinin, the response to therapy (corneal lesions; all fifteen patients with proteolytic activity in tear fluid and corneal lesion, aprotinin, in some cases combined with fibronectin) was “resulted in corneal epithelialization; also recorded: responded quickly”, the time to response (corneal lesions; patient 1, novel therapy (aprotinin with fibronectin), after nine weeks of unsuccessful conventional treatment) was no more than 24 h and the “Recovery in” value (corneal lesions; patient 2, disciform keratitis, recurrent erosion for 1 week) was 4 days. The clinical response (corneal lesions; patient 3, corneal erosion caused by soft contact lens, proteinase inhibitor therapy) was “improved rapidly”, the “Complete epithelialization in” value (corneal lesions; patient 3, soft contact lens user, recurrent corneal erosion) was 48 h and the clinical response (corneal lesions; patient 4, corneal perforation, soft contact lens and antibiotics together with aprotinin) was “led to healing”. The “duration of corneal healing” value (corneal lesions; patient 4, keratitis sicca, corneal perforation and ulcer) was “six”, the clinical response (corneal lesions; patient 7, Mooren's ulcer, 20 IU/ml, later (20 Jan on) 40 IU/ml hourly) was “successfully treated” and the “ulcer area relative to original area” value (corneal lesions; patient 7, Mooren's ulcer, within a month after onset of aprotinin therapy) was “regressed into a third of its original area”. The “complete healing in” value (corneal lesions; patient 8, ulcus corneae, S. aureus, after onset of aprotinin) was 12 days, the epithelialization (corneal lesions; patient 9, deep corneal ulcer, topical antibiotics and aprotinin) was “rapid” and the “epithelialization in” value (corneal lesions; patient 10, giant papillary conjunctivitis) was “one”. For the same compound, the “Complete epithelialization in” value (corneal lesions; patient 12, absc. corneae, Moraxella, antibiotics and aprotinin) was 2 weeks, the response to therapy (corneal lesions; patient 13, herpes keratitis, new erosion, with topical acyclovir, antibiotics) was “clear improvement” and the “condition improved in” value (corneal lesions; patient 14, blepharitis chronica) was 1 week. For the same compound, the “condition improved in” value (corneal lesions; patient 15, conjunctivitis vernalis, punctate erosion) was 5 days, the therapeutic effect (corneal lesions; aprotinin therapy after failure of fibronectin) was “rapid epithelization” and the “outcome and complications of longest treatment” value ([2]; aprotinin eye drops, patient 4 (dry eyes, spontaneous perforation), five weeks) was “good results without corneal or other complications”. The side effects ([2]; topical aprotinin therapy, patients) was “No side effects”, the Tearfluid plasmin-like activity ([3]; patient 2, 25 Nov, 7.0 on 1 Nov) was less than 0.1 µg/mL and the Tearfluid plasmin-like activity ([3]; patient 3, 4 Dec, 6.8 on 16 Nov) was less than 0.1 µg/mL. For the same compound, the Tearfluid plasmin-like activity ([3]; patient 4, 20 Dec, 5.5 on 25 Nov) was less than 0.1 µg/mL, the Tearfluid plasmin-like activity ([3]; patient 7, 10 Jan, 7.6 on 8 Jan, aprotinin 20 IU/ml from Jan 8) was 4.7 µg/mL and the Tearfluid plasmin-like activity ([3]; patient 7, 16 Jan, aprotinin 20 IU/ml from Jan 8) was 12.0 µg/mL. It also gave a Tearfluid plasmin-like activity ([3]; patient 7, 20 Jan, aprotinin 20 IU/ml from Jan 8) of 12.5 µg/mL, a Tearfluid plasmin-like activity ([3]; patient 7, 22 Jan, aprotinin 40 IU/ml hourly from 20 Jan, fibronectin added Jan 22) of 3.3 µg/mL and a Tearfluid plasmin-like activity ([3]; patient 8, 14 Feb) of less than 0.1 µg/mL. The Tearfluid plasmin-like activity ([3]; patient 8, 29 Jan, 6.0 on 6 Jan, 4.5 on 8 Jan during antibiotic therapy) was 0.5 µg/mL, the Tearfluid plasmin-like activity ([3]; patient 8, 31 Jan) was 0.5 µg/mL and the Tearfluid plasmin-like activity ([3]; patient 9, 13 Feb) was less than 0.1 µg/mL. The Tearfluid plasmin-like activity ([3]; patient 9, 20 Jan, 6.3 on 16 Jan, with topical antibiotics) was 3.0 µg/mL, the Tearfluid plasmin-like activity ([3]; patient 9, 30 Jan) was less than 0.1 µg/mL and the Tearfluid plasmin-like activity ([3]; patient 10, 22 Jan, 10.3 on 20 Jan) was 2.4 µg/mL. The Tearfluid plasmin-like activity ([3]; patient 10, 24 Jan) was less than 0.1 µg/mL, the Tearfluid plasmin-like activity ([3]; patient 11, 9 Feb) was less than 0.1 µg/mL and the Tearfluid plasmin-like activity ([3]; patient 11, 30 Jan, 3.1 on 21 Jan) was 1.9 µg/mL. For the same compound, the Tearfluid plasmin-like activity ([3]; patient 12, 6 Feb) was less than 0.1 µg/mL, the Tearfluid plasmin-like activity ([3]; patient 12, 24 Jan, 20.0 on 22 Jan, with antibiotics) was 12.4 µg/mL and the Tearfluid plasmin-like activity ([3]; patient 13, 3 Feb, 6.3 on 31 Jan, with topical acyclovir, antibiotics) was 0.5 µg/mL. It also gave a Tearfluid plasmin-like activity ([3]; patient 13, 19 Feb) of less than 0.1 µg/mL, a Proteolytic plasmin-like activity [1, 4] of less than 0.1 µg/mL and a Proteolytic plasmin-like activity [1, 5] of less than 0.1 µg/mL. For the same compound, the Proteolytic plasmin-like activity ([1]; Patient 7 tear fluid (7.6 without inhibitor), aprotinin 10 IU/ml) was less than 0.1 µg/mL, the Proteolytic plasmin-like activity [1, 6] was less than 0.1 µg/mL and the Proteolytic plasmin-like activity [1, 7] was less than 0.1 µg/mL. The Proteolytic plasmin-like activity ([1]; Patient 15 tear fluid (4.2 without inhibitor), aprotinin 10 IU/ml) was less than 0.1 µg/mL, the “effect … of tear fluid” value [1, 9] was “can be inhibited” and the “effect … of tear fluid” value ([1]; tear fluids of patients with corneal lesions, in the assay, listed as Aprotinin) was “inhibit effectively”.

For fibronectin, the “appearance of corneal erosion” value (corneal lesions; patient 1, topical fibronectin alone from Oct. 16, one day later) was “altered appearance”, the therapeutic effect (corneal lesions; left eye, fibronectin applied 7 days later, tear fluid with plasmin-like activity) was “no such therapeutic effect was observed” and the therapeutic effect (corneal lesions; right eye, initial topical fibronectin, no proteolytic activity detected) was “clear beneficial effect and epithelial healing”. For the same compound, the “time to healing of the epithelium” value (epithelium) was “about 20 days”.

In the case of heparin, the clinical effect (corneal lesions) is reported as “little or no clinical effect”, the Proteolytic plasmin-like activity [1, 4] is reported as 11.9 µg/mL and the Proteolytic plasmin-like activity [1, 5] is reported as 7.8 µg/mL. The Proteolytic plasmin-like activity [1, 6] was 7.2 µg/mL, the Proteolytic plasmin-like activity [1, 7] was 6.8 µg/mL and the “effect … of tear fluid” value [1, 8] was “very little effect”. For the same compound, the “effect … of tear fluid” value [1, 9] was “no effect”.
